The values that follow come from US20170128489A1 (priority 2014, published 2017).

For `NC(=O)CN(CC(N)=O)C1CCCCCCC1` [CO-IDAm, Cyclooctylimidodiacetamide], the melting point fell in the range of 152 to 154 °C.

Usually melting point stands for the temperature of the solid-liquid transition.
